Test results reported in ChEMBL document CHEMBL2029311, “Design, synthesis, and evaluation of a novel class of 2,3-disubstituted-tetrahydro-β-carboline derivatives” (2012).

What follows are compounds tested on Mus musculus (assay: Antiinflammatory activity in ICR mouse assessed as inhibition of xylene-induced ear edema at 100 mg/kg, po administered 30 mins before xylene challenge relative to control).
Type: functional
`CC(=O)Oc1ccccc1C(=O)O` [ASPIRIN] showed an inhibition in vivo at 100 mg/kg of 89.5%.

What follows are compounds tested on Mus musculus (assay: Antiinflammatory activity in ICR mouse assessed as inhibition of xylene-induced ear edema at 10 umol/kg, po administered 30 mins before xylene challenge relative to control).
Type: functional
With `CC(=O)OC[C@H]1O[C@@H](OC(C)=O)[C@H](NC(=O)[C@@H]2Cc3c([nH]c4ccccc34)CN2C(=O)OC(C)(C)C)[C@@H](OC(C)=O)[C@@H]1OC(C)=O` the inhibition in vivo at 10 µmol/kg was 71.2%.
`CC(=O)OC[C@H]1O[C@@H](OC(C)=O)[C@H](NC(=O)[C@@H]2Cc3c([nH]c4ccccc34)CN2C(=O)[C@H](C)NC(=O)OC(C)(C)C)[C@@H](OC(C)=O)[C@@H]1OC(C)=O` was tested, and the inhibition in vivo at 10 µmol/kg was 82%.
`C[C@H](NC(=O)OC(C)(C)C)C(=O)N1Cc2[nH]c3ccccc3c2C[C@H]1C(=O)N[C@H]1C(O)O[C@H](CO)[C@@H](O)[C@@H]1O` (mixture of isomers) gave an inhibition in vivo at 10 µmol/kg of 51.9%.
`C[C@H](N)C(=O)N1Cc2[nH]c3ccccc3c2C[C@H]1C(=O)N[C@H]1C(O)O[C@H](CO)[C@@H](O)[C@@H]1O` (mixture of isomers) was tested, and the inhibition in vivo at 10 µmol/kg was 66%.
Work on `CC(=O)OC[C@H]1O[C@@H](OC(C)=O)[C@H](NC(=O)[C@@H]2Cc3c([nH]c4ccccc34)CN2C(=O)CNC(=O)OC(C)(C)C)[C@@H](OC(C)=O)[C@@H]1OC(C)=O` yielded an inhibition in vivo at 10 µmol/kg of 58.6%.
